Assay results as given in US20250296960A1, “PEPTIDE COMPOSITIONS AND METHODS OF USE THEREOF” (priority 2022, published 2025).
Numbered stars: 1 amine (or outer) side, 2 acyl side, 3 side chain; on linkers, the order of the positions; unused ones are H or OH. Square brackets hold non-standard residues; d marks the D form. Side chains are listed from the residue outwards. Peptide text beside a SMILES is read from it. * marks the point of attachment. X1 = O=C(O)CCCCCCCCCCCCCCCCC(=O)N[C@@H](CCC(=O)NCCOCCOCC(=O)NCCOCCOCC(=O)NCCN1C(=O)CC(*)C1=O)C(=O)O; Biotin = O=C1N[C@H]2[C@H](CS[C@H]2CCCCC(=O)*)N1; C18 diacid = O=C(O)CCCCCCCCCCCCCCCCC(=O)*; γGlu = O=C(O)[C@H](CCC(=O)[*:2])N[*:1]; AEEA = NCCOCCOCC(=O)O; Aib = CC(C)(N)C(=O)O

What was measured:
[1] = Intestinal absorption / PK after intraduodenal administration of oral formulation in rats, serum LC-MS/MS; conditions: rat, in vivo, 300 nmol/kg
Procedure: This study was conducted to evaluate the intestinal absorption of peptides following enteral administration of oral pharmaceutical formulations. The pharmaceutical formulation was administered in a form of suspensions by intraduodenal (ID) injection in rats. SEQ ID_87, 89 and 90 was accurately weighed and dissolved in 10 mM PBS containing polysorbate 80 (pH 7.4, vehicle I). The mixture was vortexed for 5 min to get a clear solution. Then, 2.5 mL of vehicle was added to the mixture and vortexed for 30 min to get homogenous opaque suspension. The composition of Vehicle II was sodium chenodeoxycholate, and propyl gallate in polysorbate 80 in PBS. The animals were not fasted prior to dosing. 0.2˜ 0.4 mL of whole blood was taken from vein at each time point (0, 0.167, 0.5, 1, 2, 4, 8, 24, and 48 hrs after IV or ID administration). The collected whole blood was incubated at room temperature for 20 min and tubes were centrifugated at 13,000 rpm for 10 min at 4° C. The resulting serum 0.1˜ 0.2 mL was transferred into the tube and stored at −70° C. until analysis. The concentrations of peptides in serum were determined by LC-MS/MS analysis. PK parameters were analyzed by non-compartmental analysis using Phoenix WinNonlin 5.0.1. software (Pharsight Corporation, Mountain View, CA, USA).

human GIPR = target: T1, human GIPR (Homo sapiens, UniProt P48546); assay: cAMP assay (HitHunter cAMP) in GIPR-expressing CHO-K1 cells (GIPR+ cells); assay type: cell-based
T1 construct: host or cells: CHO-K1
T1 sequence (P48546 22-466): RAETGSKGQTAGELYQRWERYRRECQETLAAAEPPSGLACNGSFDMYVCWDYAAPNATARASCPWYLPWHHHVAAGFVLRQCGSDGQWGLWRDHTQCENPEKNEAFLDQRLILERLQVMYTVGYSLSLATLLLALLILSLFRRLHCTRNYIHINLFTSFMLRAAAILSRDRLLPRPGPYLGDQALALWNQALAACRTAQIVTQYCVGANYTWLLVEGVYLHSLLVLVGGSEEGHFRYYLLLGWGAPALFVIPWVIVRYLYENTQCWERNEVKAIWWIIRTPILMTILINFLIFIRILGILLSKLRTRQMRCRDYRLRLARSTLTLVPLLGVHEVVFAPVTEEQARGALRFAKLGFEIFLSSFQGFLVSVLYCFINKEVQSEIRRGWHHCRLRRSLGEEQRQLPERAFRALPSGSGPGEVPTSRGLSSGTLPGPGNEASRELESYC
Procedure: (§1) The cells were seeded in a 96-well plate at 7×10^3 cells/well using cell plate reagent and incubated the cells overnight at 37° C. and 5% CO2. To perform the cAMP detection assay, cell plating reagent were replaced with the cAMP Assay buffer. Each of the wells was then treated with the diluted peptide and incubated for 30 minutes under conditions of a temperature of 37° C. in a CO2 incubator.
(§2) After the incubation, cAMP Antibody reagent and Working cAMP detection solution to all wells. Incubate the plate for 1 hour at Room temperature in the dark. Then, cAMP Solution A was added and incubated for 3 hours at room temperature in the dark. Subsequently, the luminescence was measured using the microplate reader device.

human GCGR = target: T2, human GCGR (Homo sapiens, UniProt P47871); assay: cAMP assay (HitHunter cAMP) in GCGR-expressing CHO-K1 cells (GCGR+ cells); assay type: cell-based
T2 construct: host or cells: CHO-K1
Procedure: as §1, §2

human GLP-1R = target: T3, human GLP-1R (Homo sapiens, UniProt P43220); assay: cAMP assay (HitHunter cAMP) in GLP-1R-expressing CHO-K1 cells (GLP-1R+ cells); assay type: cell-based
T3 construct: host or cells: CHO-K1
Procedure: as §1, §2

[2] = Body weight loss in normal C57BL/6 mice, subcutaneous dosing; assay type: in vivo; conditions: normal mice; 20 nmol/kg QD; after 48 or 72 hours
Procedure: To confirm the therapeutic effect of the peptide in vivo, polypeptides were administered to mice to measure changes in body weight. […] The peptides were delivered at 0.02% polysorbate 80 (PS80) in PBS and dosing volume was 10 mL/kg. Body weight was monitored 6 h, QD.
To confirm the therapeutic effect of the peptide in obesity, diabetes, or NASH, polypeptides were administered to mice to measure changes in food intake, blood glucose and body weight. […] In addition, a NASH animal model was prepared by feeding a high fat, high fructose, high cholesterol diet to normal C57BL/6 mice (approximately 6 weeks old) for approximately 21 weeks, and increasing the body weights of the mice to approximately 50 g on average. Thereafter, polypeptides were administered by subcutaneous injection at dose of 20 nmol/kg once every other day for 2 weeks. Body weight and food intake were measured once every other day given points of time. After 2 weeks of treatment period, mice were sacrificed, then liver weight, hepatic triglyceride, and NASH related biomarkers were measured.
DD01 administered at 40 nmol/kg, s.c. Q2D as positive control was delivered at 0.02% PS80 in PBS and dosing volume was 10 mL/kg. Body weight was monitored QD for 4 days.
The peptides were delivered at 0.02% PS80 in PBS and dosing volume was 10 mL/kg. Food intake, blood glucose, and body weight changes were monitored QD.

[3] = Table 19, normalised to activity at GLP-1R
[4] = Table 24, ratio of EC50 of native ligand over peptide

T2 sequence (P47871 26-477): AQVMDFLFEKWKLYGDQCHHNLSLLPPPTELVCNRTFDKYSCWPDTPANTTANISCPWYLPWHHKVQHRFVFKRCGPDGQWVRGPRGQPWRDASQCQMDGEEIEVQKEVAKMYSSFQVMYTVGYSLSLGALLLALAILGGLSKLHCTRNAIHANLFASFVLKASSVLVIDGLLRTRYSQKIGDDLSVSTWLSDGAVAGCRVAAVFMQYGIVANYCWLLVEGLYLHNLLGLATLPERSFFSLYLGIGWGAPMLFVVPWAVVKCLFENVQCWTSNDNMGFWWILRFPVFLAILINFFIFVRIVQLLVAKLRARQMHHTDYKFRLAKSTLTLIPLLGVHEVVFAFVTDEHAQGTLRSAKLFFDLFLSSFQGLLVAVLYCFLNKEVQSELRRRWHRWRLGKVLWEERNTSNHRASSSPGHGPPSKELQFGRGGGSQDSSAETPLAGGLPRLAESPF
T3 sequence (P43220 24-463): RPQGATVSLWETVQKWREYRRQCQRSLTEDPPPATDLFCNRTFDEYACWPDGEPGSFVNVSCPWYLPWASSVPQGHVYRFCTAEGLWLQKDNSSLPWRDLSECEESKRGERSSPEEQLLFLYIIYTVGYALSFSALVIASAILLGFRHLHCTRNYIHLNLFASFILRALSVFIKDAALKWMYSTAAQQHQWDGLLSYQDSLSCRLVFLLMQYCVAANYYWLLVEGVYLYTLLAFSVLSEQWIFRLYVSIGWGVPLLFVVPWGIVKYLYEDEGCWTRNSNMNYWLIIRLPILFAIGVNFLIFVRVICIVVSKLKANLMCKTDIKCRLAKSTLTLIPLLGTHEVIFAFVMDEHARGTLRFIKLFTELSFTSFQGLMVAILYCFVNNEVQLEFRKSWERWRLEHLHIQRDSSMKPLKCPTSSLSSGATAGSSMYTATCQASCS

SMILES: CSCC[C@H](NC(=O)[C@H](CCCCNC(=O)CCCC[C@@H]1SC[C@@H]2NC(=O)N[C@@H]21)NC(=O)[C@H](Cc1ccc(O)cc1)NC(=O)[C@H](CC(=O)O)NC(=O)[C@H](CC(C)C)NC(=O)[C@H](CC(C)C)NC(=O)[C@H](CCCCNC(=O)COCCOCCNC(=O)COCCOCCNC(=O)CC[C@H](NC(=O)CCCCCCCCCCCCCCCCC(=O)O)C(=O)O)NC(=O)[C@H](CO)NC(=O)[C@H](Cc1ccc(O)cc1)NC(=O)[C@H](CC(=O)O)NC(=O)[C@H](CO)NC(=O)[C@@H](NC(=O)[C@H](Cc1ccccc1)NC(=O)[C@@H](NC(=O)CNC(=O)[C@H](CCC(N)=O)NC(=O)C(C)(C)NC(=O)[C@@H](N)Cc1ccc(O)cc1)[C@@H](C)O)[C@@H](C)O)C(=O)N[C@@H](CCC(N)=O)C(=O)N[C@@H](CCCNC(=N)N)C(=O)N[C@@H](CC(=O)O)C(=O)N[C@@H](Cc1ccccc1)C(=O)N[C@H](C(=O)N[C@@H](CCC(N)=O)C(=O)N[C@@H](Cc1c[nH]c2ccccc12)C(=O)N[C@@H](CC(C)C)C(=O)N[C@@H](CC(C)C)C(=O)N[C@@H](CCC(=O)O)C(=O)NCC(=O)NCC(=O)N1CCC[C@H]1C(=O)N[C@@H](CO)C(=O)N[C@@H](CO)C(=O)NCC(=O)N[C@@H](C)C(=O)N1CCC[C@H]1C(=O)N1CCC[C@H]1C(=O)N1CCC[C@H]1C(=O)N[C@@H](CO)C(N)=O)C(C)C [SEQ ID NO. 87, YAibQGT FTSDY SK*LLD YB*MQR DFVQW LLEGG PSSGA PPPS] (H-Y[Aib]QGTFTSDYSK([AEEA-AEEA-γGlu-C18 diacid])LLDYK(Biotin)MQRDFVQWLLEGGPSSGAPPPS-NH2; N-terminus and C-terminus assumed)
- AUC(0-inf) [1]: 1860 ng·h/mL
- Cmax [1]: 290 ± 110 ng/mL
- MRT inf [1]: 8.19 ± 1.92 h
- Tmax [1]: 0.25 ± 0.17 h
- half-life [1]: 6.17 ± 1.36 h

SMILES: CSCC[C@H](NC(=O)[C@H](Cc1ccc(O)cc1)NC(=O)[C@H](CC(=O)O)NC(=O)[C@H](CC(C)C)NC(=O)[C@H](CC(C)C)NC(=O)[C@H](CCCCNC(=O)COCCOCCNC(=O)COCCOCCNC(=O)CC[C@H](NC(=O)CCCCCCCCCCCCCCCCC(=O)O)C(=O)O)NC(=O)[C@H](CO)NC(=O)[C@H](Cc1ccc(O)cc1)NC(=O)[C@H](CC(=O)O)NC(=O)[C@H](CO)NC(=O)[C@@H](NC(=O)[C@H](Cc1ccccc1)NC(=O)[C@@H](NC(=O)CNC(=O)[C@H](CCC(N)=O)NC(=O)C(C)(C)NC(=O)[C@@H](N)Cc1ccc(O)cc1)[C@@H](C)O)[C@@H](C)O)C(=O)N[C@@H](CCSC)C(=O)N[C@@H](CCC(N)=O)C(=O)N[C@@H](CCCNC(=N)N)C(=O)N[C@@H](CC(=O)O)C(=O)N[C@@H](Cc1ccccc1)C(=O)N[C@H](C(=O)N[C@@H](CCC(N)=O)C(=O)N[C@@H](Cc1c[nH]c2ccccc12)C(=O)N[C@@H](CC(C)C)C(=O)N[C@@H](CC(C)C)C(=O)N[C@@H](CCC(=O)O)C(=O)NCC(=O)NCC(=O)N1CCC[C@H]1C(=O)N[C@@H](CO)C(=O)N[C@@H](CO)C(=O)NCC(=O)N[C@@H](C)C(=O)N1CCC[C@H]1C(=O)N1CCC[C@H]1C(=O)N1CCC[C@H]1C(=O)N[C@@H](CO)C(=O)N[C@@H](CCCCNC(=O)CCCC[C@@H]1SC[C@@H]2NC(=O)N[C@@H]21)C(N)=O)C(C)C [SEQ ID_90] (H-Y[Aib]QGTFTSDYSK([AEEA-AEEA-γGlu-C18 diacid])LLDYMMQRDFVQWLLEGGPSSGAPPPSK(Biotin)-NH2; N-terminus and C-terminus assumed)
- AUC(0-inf) [1]: 2490 ng·h/mL
- Cmax [1]: 282 ± 88.5 ng/mL
- MRT inf [1]: 11.8 ± 1.48 h
- Tmax [1]: 0.3 ± 0.18 h
- half-life [1]: 8.37 ± 0.92 h

SMILES: CSCC[C@H](NC(=O)[C@H](Cc1ccc(O)cc1)NC(=O)[C@H](CC(=O)O)NC(=O)[C@H](CC(C)C)NC(=O)[C@H](CC(C)C)NC(=O)[C@H](CCCCN)NC(=O)[C@H](CO)NC(=O)[C@H](Cc1ccc(O)cc1)NC(=O)[C@H](CC(=O)O)NC(=O)[C@H](CO)NC(=O)[C@@H](NC(=O)[C@H](Cc1ccccc1)NC(=O)[C@@H](NC(=O)CNC(=O)[C@H](CCC(N)=O)NC(=O)C(C)(C)NC(=O)[C@@H](N)Cc1c[nH]cn1)[C@@H](C)O)[C@@H](C)O)C(=O)N[C@@H](CCSC)C(=O)N[C@@H](CCC(N)=O)C(=O)N[C@@H](CCCNC(=N)N)C(=O)N[C@@H](CC(=O)O)C(=O)N[C@@H](Cc1ccccc1)C(=O)N[C@H](C(=O)N[C@@H](CCC(N)=O)C(=O)N[C@@H](Cc1c[nH]c2ccccc12)C(=O)N[C@@H](CC(C)C)C(=O)N[C@@H](CC(C)C)C(=O)N[C@@H](CCC(=O)O)C(=O)NCC(=O)NCC(=O)N1CCC[C@H]1C(=O)N[C@@H](CO)C(=O)N[C@@H](CO)C(=O)NCC(=O)N[C@@H](C)C(=O)N1CCC[C@H]1C(=O)N1CCC[C@H]1C(=O)N1CCC[C@H]1C(=O)N[C@@H](CO)C(=O)N[C@@H](CSC1CC(=O)N(CCNC(=O)COCCOCCNC(=O)COCCOCCNC(=O)CC[C@H](NC(=O)CCCCCCCCCCCCCCCCC(=O)O)C(=O)O)C1=O)C(N)=O)C(C)C (some centres unmarked) [5-5A] (H-H[Aib]QGTFTSDYSKLLDYMMQRDFVQWLLEGGPSSGAPPPSC(X1)-NH2; N-terminus assumed)
- Activity relative to STD peptide (%), GIPR (human GIPR; Table 18): 14%
- Activity relative to GLP-1 (%), GIPR (human GIPR; [3]): 2%
- Relative % to native ligand, GIPR (human GIPR; [4]): 14%
- Ratio vs. GLP-1R, GIPR (human GIPR; Table 25): 2
- Relative % to non-lipidated peptide, GIPR (human GIPR; Table 26): 3%
- Activity relative to STD peptide (%), GCGR (human GCGR; Table 18): 1%
- Activity relative to GLP-1 (%), GCGR (human GCGR; [3]): 0%
- Relative % to native ligand, GCGR (human GCGR; [4]): 1%
- Ratio vs. GLP-1R, GCGR (human GCGR; Table 25): 0
- Relative % to non-lipidated peptide, GCGR (human GCGR; Table 26): 1%
- Activity relative to STD peptide (%), GLP-1R (human GLP-1R; Table 18): 673%
- Activity relative to GLP-1 (%), GLP-1R (human GLP-1R; [3]): 100%
- Relative % to native ligand, GLP-1R (human GLP-1R; [4]): 673%
- Ratio vs. GLP-1R, GLP-1R (human GLP-1R; Table 25): 100
- Relative % to non-lipidated peptide, GLP-1R (human GLP-1R; Table 26): 40%
- Weight loss (%) [2]: 10.6 ± 1.0%
